From paper PMC9822021, “Biological Activity of Amidino-Substituted Imidazo [4,5-b]pyridines” (Molecules, 2022)
Read-outs that look alike come from different tables or passages of the source.

Columns and labels:
E. coli Efflux Del = assay: microbe, parasite or virus in culture; format: cell-based; details: Escherichia coli, read-out: MIC E. coli Efflux Del
Method: (§1) Synthesized compounds were prepared as 10 mM DMSO solutions and tested in a final concentration range of 100–0.2 µM [34].
(§2) Broth microdilution testing was performed according to CLSI (Clinical Laboratory Standards Institute) guidelines. MIC (minimal inhibitory concentration) values were defined as the last tested concentration of the compound at which there was no visible growth of bacteria. Inoculums for each microorganism were prepared using the direct colony suspension method, where broth solutions that achieved turbidity equivalent to 0.5 McFarland standard were additionally diluted 100× with Ca-adjusted MH media (Becton Dickinson).

[1] = tested on: LN-229 glioblastoma cells; assay: In vitro antiproliferative activity, MTS proliferation assay; format: cell-based; details: Homo sapiens, 72 h
Description: (§3) Human cancer cell lines used in this manuscript, namely Capan-1, HCT-116, NCI-H460, LN-229, HL-60, K-562, Z-138, SW620, PC3 and HeLa, were acquired from the American Type Culture Collection (ATCC, Manassas, VA, USA), while the DND-41 cell line was purchased from the Deutsche Sammlung von Mikroorganismen und Zellkulturen (DSMZ Leibniz-Institut, Germany). Culture media were purchased from Gibco Life Technologies, USA, and supplemented with 10% fetal bovine serum (HyClone, GE Healthcare Life Sciences, Chicago, IL, USA), except for the media for SW620, PC3 and HeLa cells, which were purchased from Sigma.
(§4) Adherent cell lines LN-229, HCT-116, NCI-H460 and Capan-1 cells were seeded at a density between 500 and 1500 cells per well in 384-well tissue culture plates (Greiner). […]. Cells were incubated for 72 h with compounds and were then analyzed using the CellTiter 96® AQueous One Solution Cell Proliferation Assay (MTS) reagent (Promega) according to the manufacturer’s instructions. Absorbance of the samples was measured at 490 nm using a SpectraMax Plus 384 (Molecular Devices), and OD values were used to calculate the 50% inhibitory concentration (IC50). Compounds were tested in two independent experiments. SW620, PC3 and HeLa cells were seeded in 96-well microtiter plates at 1 × 10^4 to 3 × 10^4 cells/mL, depending on the doubling times of the specific cell line. Test agents were then added in five 10-fold dilutions (10^−8 to 10^−4 M). Working dilutions were freshly prepared on the day of testing. After 72 h of incubation, the cell growth rate was evaluated using the MTT assay as described previously. Absorbance of the samples was measured at 570 nm, and OD values were used to calculate the 50% inhibitory concentration (IC50). Each test was performed in quadruplicate in at least two individual experiments.

[2] = tested on: HCT-116 colorectal carcinoma cells; assay: as above; format: cell-based; details: Homo sapiens, 72 h
Description: as §3, §4

[3] = tested on: NCI-H460 lung carcinoma cells; assay: as above; format: cell-based; details: Homo sapiens, 72 h
Description: as §3, §4

[4] = tested on: K-562 chronic myeloid leukemia cells; assay: as above; format: cell-based; details: Homo sapiens, K562, 72 h
Description: as §3, §4

in vitro [5] = details: dog
[6] = tested on: SW620 colon carcinoma cells; assay: In vitro antiproliferative activity, MTT assay; format: cell-based; details: Homo sapiens, SW-620, 72 h
Description: as §3, §4

[7] = tested on: HeLa cervical carcinoma cells; assay: In vitro antiproliferative activity, MTT assay; format: cell-based; details: Homo sapiens, 72 h
Description: as §3, §4

[8] = tested on: PC3 prostate carcinoma cells; assay: In vitro antiproliferative activity, MTT assay; format: cell-based; details: Homo sapiens, 72 h
Description: as §3, §4

[9] = tested on: Z-138 non-Hodgkin lymphoma cells; assay: In vitro antiproliferative activity, MTS proliferation assay; format: cell-based, human; details: Homo sapiens, Z-138, 72 h
Description: as §3, §4

in vitro [10] = assay: in vitro
[11] = tested on: HL-60 acute myeloid leukemia cells; assay: In vitro antiproliferative activity, MTS proliferation assay; format: cell-based; details: Homo sapiens, 72 h
Method: (§5) Culture media were purchased from Gibco Life Technologies, USA, and supplemented with 10% fetal bovine serum (HyClone, GE Healthcare Life Sciences, Chicago, IL, USA), except for the media for SW620, PC3 and HeLa cells, which were purchased from Sigma.
(§6) Cells were incubated for 72 h with compounds and were then analyzed using the CellTiter 96® AQueous One Solution Cell Proliferation Assay (MTS) reagent (Promega) according to the manufacturer’s instructions. […] Compounds were tested in two independent experiments. SW620, PC3 and HeLa cells were seeded in 96-well microtiter plates at 1 × 10^4 to 3 × 10^4 cells/mL, depending on the doubling times of the specific cell line. Test agents were then added in five 10-fold dilutions (10^−8 to 10^−4 M). Working dilutions were freshly prepared on the day of testing. After 72 h of incubation, the cell growth rate was evaluated using the MTT assay as described previously. […] Each test was performed in quadruplicate in at least two individual experiments.

[12] = tested on: Capan-1 pancreatic adenocarcinoma cells; assay: as above; format: cell-based; details: Homo sapiens, 72 h
Method: as §5, §6

[13] = tested on: DND-41 acute lymphoblastic leukemia cells; assay: as above; format: cell-based; details: Homo sapiens, DND41, 72 h
Method: as §5, §6

S. Pneumoniae ATCC 49619 = assay: Antibacterial activity in vitro, broth microdilution; format: cell-based; details: Streptococcus pneumoniae, ATCC49619; broth microdilution (CLSI), 16–24 h at 37 °C
Method: as §1, §2

S. aureus ATCC 29213 = assay: as above; format: cell-based; details: Staphylococcus aureus, ATCC29213; broth microdilution (CLSI), 16–24 h at 37 °C
Method: as §1, §2

E. coli ATCC 25922 = assay: as above; format: cell-based; details: Escherichia coli, ATCC25922; broth microdilution (CLSI), 16–24 h at 37 °C
Method: as §1, §2

HSV-1 KOS = assay: Antiviral CPE reduction assay; format: cell-based, herpes simplex virus-1; details: Human alphaherpesvirus 1
YFV 17D = assay: microbe, parasite or virus in culture; format: cell-based; details: Yellow fever virus, Huh-7, read-out: EC50 YFV 17D Huh7
Sindbis = assay: Antiviral CPE reduction assay; format: cell-based; details: Sindbis virus, Huh-7, Huh7 cells
RSV A Long = assay: Antiviral CPE reduction assay; format: cell-based, respiratory syncytial virus A; details: HEL 299 cells
[14] = tested on: Influenza H1N1 (A/Ned/378/05); assay: Antiviral CPE reduction assay; format: cell-based; details: Influenza A virus, MDCK cells
in vitro [15] = details: human
HCoV 229E = assay: Antiviral CPE reduction assay; format: cell-based; details: Human coronavirus 229E, HEL 299 cells
in vitro [16] = details: human; remark: listed apart in the source
HCoV NL63 = assay: Antiviral CPE reduction assay; format: cell-based; details: Human coronavirus NL63, Huh-7, Huh7 cells
HCoV OC43 = assay: Antiviral CPE reduction assay; format: cell-based, human coronavirus OC43; details: Betacoronavirus 1, OC43, HEL 299 cells
[17] = tested on: Influenza B (B/Ned/537/05); assay: Antiviral CPE reduction assay; format: cell-based; details: Influenza B virus, MDCK cells
[18] = tested on: Influenza H3N2 (A/HK/7/87); assay: Antiviral CPE reduction assay; format: cell-based; details: Influenza A virus, MDCK cells
Zika mr766 = assay: Antiviral CPE reduction assay; format: cell-based; details: Zika virus, Huh-7, Huh7 cells
[19] = human respiratory syncytial virus, HEL 299, CPE reduction

## Brc1cnc2nc(-c3ccc(C4=NCCCN4)cc3)[nH]c2c1.Cl [Compound 15, 6-Bromo-2-(4-(1,4,5,6-tetrahydropyrimidin-2-yl)phenyl)-1H-imidazo[4,5-b]pyridine Hydrochloride]
E. coli Efflux Del
  MIC: > 64 µM
[1]
  IC50: 73.5 ± 0.8 µM
[2]
  IC50: > 100 µM
[3]
  IC50: > 100 µM
[4]
  IC50: > 100 µM
other
  melting point: > 300 °C
In vitro [5]
  CC50: > 100 µM
[6]
  IC50: 3.5 ± 0.2 µM
[7]
  IC50: 7.3 ± 0.4 µM
[8]
  IC50: 8.6 ± 0.7 µM
[9]
  IC50: 29.1 ± 16.5 µM
In vitro [10]
  CC50: > 30 µM
[11]
  IC50: > 100 µM
[12]
  IC50: > 100 µM
[13]
  IC50: 17 ± 1.3 µM
S. Pneumoniae ATCC 49619
  MIC: > 64 µM
S. aureus ATCC 29213
  MIC: > 64 µM
E. coli ATCC 25922
  MIC: > 64 µM

## Brc1cnc2nc(-c3ccccc3)[nH]c2c1 [Compound 7, 6-Bromo-2-phenyl-1H-imidazo[4,5-b]pyridine]
HSV-1 KOS
  EC50: > 100 µM
E. coli Efflux Del
  MIC: > 64 µM
other
  melting point: > 300 °C
YFV 17D
  EC50: > 100 µM
Sindbis
  EC50: > 100 µM
RSV A Long; [19]
  EC50: 21 ± 5.9 µM
[14]
  EC50: > 100 µM
In vitro [15]
  CC50: > 100 µM
In vitro [5]
  CC50: > 100 µM
HCoV 229E
  EC50: > 100 µM
In vitro [16]
  CC50: > 100 µM
HCoV NL63
  EC50: > 100 µM
S. Pneumoniae ATCC 49619
  MIC: > 64 µM
S. aureus ATCC 29213
  MIC: > 64 µM
E. coli ATCC 25922
  MIC: > 64 µM
HCoV OC43
  EC50: > 100 µM
[17]
  EC50: > 100 µM
[18]
  EC50: > 100 µM
Zika mr766
  EC50: > 100 µM

## Cn1c(-c2ccc(C#N)cc2)nc2cccnc21 [Compound 17, 4-(3-Methyl-3H-imidazo[4,5-b]pyridin-2-yl)benzonitrile]
HSV-1 KOS
  EC50: > 100 µM
E. coli Efflux Del
  MIC: > 64 µM
[1]
  IC50: > 100 µM
[2]
  IC50: > 100 µM
[3]
  IC50: > 100 µM
[4]
  IC50: > 100 µM
other
  melting point: 183 to 185 °C
YFV 17D
  EC50: > 100 µM
Sindbis
  EC50: > 100 µM
RSV A Long; CPE reduction
  EC50: 79 ± 29.7 µM
RSV A Long; [19]
  EC50: 58 µM
[14]
  EC50: > 100 µM
In vitro [15]
  CC50: > 100 µM
In vitro [5]
  CC50: > 100 µM
HCoV 229E
  EC50: > 100 µM
[6]
  IC50: > 100 µM
[7]
  IC50: > 100 µM
[8]
  IC50: > 100 µM
In vitro [16]
  CC50: > 100 µM
HCoV NL63
  EC50: > 100 µM
[9]
  IC50: > 100 µM
[11]
  IC50: > 100 µM
[12]
  IC50: > 100 µM
[13]
  IC50: > 100 µM
S. Pneumoniae ATCC 49619
  MIC: > 64 µM
S. aureus ATCC 29213
  MIC: > 64 µM
E. coli ATCC 25922
  MIC: > 64 µM
HCoV OC43
  EC50: > 100 µM
[17]
  EC50: > 100 µM
[18]
  EC50: > 100 µM
Zika mr766
  EC50: > 100 µM

## Cl.N=C(N)c1ccc(-c2nc3ncc(Br)cc3[nH]2)cc1 [Compound 10, 4-(6-Bromo-1H-imidazo[4,5-b]pyridin-2-yl)benzimidamide Hydrochloride]
HSV-1 KOS
  EC50: > 100 µM
E. coli Efflux Del
  MIC: > 64 µM
[1]
  IC50: > 100 µM
[2]
  IC50: > 100 µM
[3]
  IC50: > 100 µM
[4]
  IC50: > 100 µM
other
  melting point: > 300 °C
YFV 17D
  EC50: > 100 µM
Sindbis
  EC50: > 100 µM
RSV A Long; human respiratory syncytial virus, CPE reduction
  EC50: 86.9 ± 18.6 µM
[14]
  EC50: 71.4 ± 24.3 µM
In vitro [15]
  CC50: > 100 µM
In vitro [5]
  CC50: > 100 µM
HCoV 229E
  EC50: > 100 µM
[6]
  IC50: 0.4 ± 0.1 µM
[7]
  IC50: 1.3 ± 0.26 µM
[8]
  IC50: ≥ 100 µM
In vitro [16]
  CC50: > 100 µM
HCoV NL63
  EC50: > 100 µM
[9]
  IC50: > 100 µM
[11]
  IC50: > 100 µM
[12]
  IC50: > 100 µM
[13]
  IC50: > 100 µM
S. Pneumoniae ATCC 49619
  MIC: > 64 µM
S. aureus ATCC 29213
  MIC: > 64 µM
E. coli ATCC 25922
  MIC: > 64 µM
HCoV OC43
  EC50: > 100 µM
[17]
  EC50: 94 ± 5.2 µM
[18]
  EC50: 79.2 ± 14.7 µM
Zika mr766
  EC50: > 100 µM

## c1ccc(-c2nc3ncccc3[nH]2)cc1 [Compound 5, 2-Phenyl-1H-imidazo[4:5-b]pyridine]
E. coli Efflux Del
  MIC: > 64 µM
[1]
  IC50: > 100 µM
[2]
  IC50: > 100 µM
[3]
  IC50: > 100 µM
[4]
  IC50: > 100 µM
other
  melting point: 290 to 291 °C
In vitro [5]
  CC50: 79.2 ± 29.4 µM
[6]
  IC50: > 100 µM
[7]
  IC50: 13.6 ± 3.4 µM
[8]
  IC50: > 100 µM
[9]
  IC50: > 100 µM
In vitro [10]
  CC50: > 30 µM
[11]
  IC50: 81.7 ± 26 µM
[12]
  IC50: 98 ± 2.9 µM
[13]
  IC50: > 100 µM
S. Pneumoniae ATCC 49619
  MIC: > 64 µM
S. aureus ATCC 29213
  MIC: > 64 µM
E. coli ATCC 25922
  MIC: > 64 µM
